Test system: 565232-114-T-J1-PDC complex spheroid viability
Assay: Anticancer human tumor 565232-114-T-J1-PDC patient-derived bladder carcinoma cell line growth inhibition [CLK]
Details: for IC50: curve of first compound; for viability, T/C: stronger effect = lower value; active means viability on the fitted dose curve at most 10% of control; inactive means the rest
Procedure, shortened: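 Multi-cell-type spheroids combined patient-derived tumor cells with HUVEC endothelial cells and human mesenchymal stem cells. Paired agents were dosed in half-log steps down from about clinical Cmax, or from 10 microM where Cmax was unknown.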
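Further: spheroids exposed to compounds for 7 days before readout.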
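Wherever viability, T/C is given: 100% = DMSO vehicle wells with luminescence normalized to vehicle control.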

CC1COCCN1c1cc(C2(S(C)(=N)=O)CC2)nc(-c2ccnc3[nH]ccc23)n1 (centres undefined) + CN1CCN(c2cc(C(=O)Nc3cc4cc(-c5cnn(C)c5)ccc4cn3)ccn2)CC1
6510 nM: IC50 (second compound 0.1 µM)
< 31.6 nM: IC50 (second compound 0.316 µM) | IC50 (second compound 1 µM) | IC50 (second compound 3.16 µM) | IC50 (second compound 10 µM)
> 10000 nM: IC50 (second compound 0.0316 µM)
inactive: viability, T/C (second compound 0.0316 µM, first compound 0.0316 µM) 89.7% | viability, T/C (second compound 0.0316 µM, first compound 0.1 µM) 93.5% | viability, T/C (second compound 0.0316 µM, first compound 0.316 µM) 98.5% | viability, T/C (second compound 0.0316 µM, first compound 1 µM) 79.7% | viability, T/C (second compound 0.0316 µM, first compound 3.16 µM) 101% | viability, T/C (second compound 0.0316 µM, first compound 10 µM) 50.7% | viability, T/C (second compound 0.1 µM, first compound 0.0316 µM) 95.7% | viability, T/C (second compound 0.1 µM, first compound 0.1 µM) 91.2% | viability, T/C (second compound 0.1 µM, first compound 0.316 µM) 80.7% | viability, T/C (second compound 0.1 µM, first compound 1 µM) 82.6% | viability, T/C (second compound 0.1 µM, first compound 3.16 µM) 98.8% | viability, T/C (second compound 0.1 µM, first compound 10 µM) 26.1% | viability, T/C (second compound 0.316 µM, first compound 0.0316 µM) 16.3% | viability, T/C (second compound 0.316 µM, first compound 0.1 µM) 18.7% | viability, T/C (second compound 0.316 µM, first compound 0.316 µM) 14.9%
active: viability, T/C (second compound 0.316 µM, first compound 1 µM) 9.37% | viability, T/C (second compound 0.316 µM, first compound 3.16 µM) 3.94% | viability, T/C (second compound 0.316 µM, first compound 10 µM) 3.31% | viability, T/C (second compound 1 µM, first compound 0.0316 µM) 0.17% | viability, T/C (second compound 1 µM, first compound 0.1 µM) 0.5% | viability, T/C (second compound 1 µM, first compound 0.316 µM) 0.18% | viability, T/C (second compound 1 µM, first compound 1 µM) 0.19% | viability, T/C (second compound 1 µM, first compound 3.16 µM) 1.38% | viability, T/C (second compound 1 µM, first compound 10 µM) 1.91% | viability, T/C (second compound 3.16 µM, first compound 0.0316 µM) 0.25% | viability, T/C (second compound 3.16 µM, first compound 0.1 µM) 0.22% | viability, T/C (second compound 3.16 µM, first compound 0.316 µM) 3.08% | viability, T/C (second compound 3.16 µM, first compound 1 µM) 0.81% | viability, T/C (second compound 3.16 µM, first compound 3.16 µM) 0.72% | viability, T/C (second compound 3.16 µM, first compound 10 µM) 2.22% | viability, T/C (second compound 10 µM, first compound 0.0316 µM) 1.75% | viability, T/C (second compound 10 µM, first compound 0.1 µM) 2.46% | viability, T/C (second compound 10 µM, first compound 0.316 µM) 1.22% | viability, T/C (second compound 10 µM, first compound 1 µM) 0.21% | viability, T/C (second compound 10 µM, first compound 3.16 µM) 0.21% | viability, T/C (second compound 10 µM, first compound 10 µM) 0.53%

NC(=O)C(=Cn1cnc(-c2cc(C(F)(F)F)cc(C(F)(F)F)c2)n1)c1cncnc1 + CN1CCN(c2cc(C(=O)Nc3cc4cc(-c5cnn(C)c5)ccc4cn3)ccn2)CC1
190 nM: IC50 (second compound 0.1 µM)
384 nM: IC50 (second compound 0.0316 µM)
active: viability, T/C (second compound 0.0316 µM, first compound 0.949 µM) 2.12% | viability, T/C (second compound 0.0316 µM, first compound 3 µM) 2.86% | viability, T/C (second compound 0.1 µM, first compound 3 µM) 0.17% | viability, T/C (second compound 0.316 µM, first compound 0.0949 µM) 4.82% | viability, T/C (second compound 0.316 µM, first compound 0.3 µM) 0.31% | viability, T/C (second compound 0.316 µM, first compound 0.949 µM) 0.21% | viability, T/C (second compound 0.316 µM, first compound 3 µM) 0.15% | viability, T/C (second compound 1 µM, first compound 0.00949 µM) 0.13% | viability, T/C (second compound 1 µM, first compound 0.03 µM) 1.42% | viability, T/C (second compound 1 µM, first compound 0.0949 µM) 0.31% | viability, T/C (second compound 1 µM, first compound 0.3 µM) 0.24% | viability, T/C (second compound 1 µM, first compound 0.949 µM) 0.19% | viability, T/C (second compound 1 µM, first compound 3 µM) 0.08% | viability, T/C (second compound 3.16 µM, first compound 0.00949 µM) 0.19% | viability, T/C (second compound 3.16 µM, first compound 0.03 µM) 0.22% | viability, T/C (second compound 3.16 µM, first compound 0.0949 µM) 3.11% | viability, T/C (second compound 3.16 µM, first compound 0.3 µM) 0.24% | viability, T/C (second compound 3.16 µM, first compound 0.949 µM) 1.65% | viability, T/C (second compound 3.16 µM, first compound 3 µM) 0.16% | viability, T/C (second compound 10 µM, first compound 0.00949 µM) 0.14% | viability, T/C (second compound 10 µM, first compound 0.03 µM) 0.12% | viability, T/C (second compound 10 µM, first compound 0.0949 µM) 1.13% | viability, T/C (second compound 10 µM, first compound 0.3 µM) 0.76% | viability, T/C (second compound 10 µM, first compound 0.949 µM) 0.21% | viability, T/C (second compound 10 µM, first compound 3 µM) 0.37%
< 9.49 nM: IC50 (second compound 0.316 µM) | IC50 (second compound 1 µM) | IC50 (second compound 3.16 µM) | IC50 (second compound 10 µM)
inactive: viability, T/C (second compound 0.0316 µM, first compound 0.00949 µM) 110% | viability, T/C (second compound 0.0316 µM, first compound 0.03 µM) 79.4% | viability, T/C (second compound 0.0316 µM, first compound 0.0949 µM) 116% | viability, T/C (second compound 0.0316 µM, first compound 0.3 µM) 63% | viability, T/C (second compound 0.1 µM, first compound 0.00949 µM) 112% | viability, T/C (second compound 0.1 µM, first compound 0.03 µM) 89.6% | viability, T/C (second compound 0.1 µM, first compound 0.0949 µM) 69.7% | viability, T/C (second compound 0.1 µM, first compound 0.3 µM) 44.2% | viability, T/C (second compound 0.1 µM, first compound 0.949 µM) 1.42% | viability, T/C (second compound 0.316 µM, first compound 0.00949 µM) 11.2% | viability, T/C (second compound 0.316 µM, first compound 0.03 µM) 19.1%

Source: PubChem BioAssay AID2060612 (Molecular Pharmacology Branch, DTP, NCI, 2025)
